{"source": "patent US10925890B2", "about": "“Use of dextran sulfate” (TX MEDIC AB, priority 2014, dated 2021)", "key": {"tMCAO rat-stroke model [1]": {"tested_on": "tMCAO rat-stroke model", "assay": "Stepping test, tMCAO rat", "assay_type": "in vivo", "conditions": "groups 2M and 3M; from day 7 to day 28", "method": "Transient middle cerebral artery occlusion was performed according to the method previously described in Stroke 29, 2162-2170 (1998). The right common carotid artery (CCA) was exposed through a midline neck incision and carefully dissected free from surrounding nerves and fascia—from its bifurcation to the base of the skull. The occipital artery branches of the external carotid artery (ECA) were then isolated, and these branches were dissected and coagulated. The ECA was dissected further distally and coagulated along with the terminal lingual and maxillary artery branches, which was then divided. The internal carotid artery (ICA) was isolated and carefully separated from the adjacent vagus nerve, and the pterygopalatine artery was ligated close to its origin with a 5-0 nylon suture (SMI, Belgium). […]\nAnimals were tested for forelimb akinesia using the stepping test. […] The number of adjusting steps were counted while the animal was moved sideways along the table surface (85 cm in approximately five seconds), in the forehand and backhand direction for both forelimbs."}, "tMCAO rat-stroke model [2]": {"tested_on": "tMCAO rat-stroke model", "assay": "Brain immunostaining: capillaries density (SMA) and GFAP, tMCAO rat", "assay_type": "in vivo", "source_text": "On day 30 after MCAO, rats were anesthetized by ketamine/xylazine were transcardiacly perfused by buffered paraformaldehyde (PFA) 4%. The brains were collected fixed in 4% buffered PFA for immunostaining and histological evaluation.\nTwo sections of brain samples were taken from the same areas of six animals from groups 1M and 3M. Capillaries were counted under the microscope in a total of three random fields from each section. Density was expressed as the mean number of capillaries per field of view."}}}
{"substance": "Dextran sulfate", "values": [{"measurement": "Stepping test, functional improvement compared to control", "setting": "tMCAO rat-stroke model [1]", "value": "improvement reached statistical significance"}, {"measurement": "Number of SMA capillaries with diameter less than 30 μm", "setting": "tMCAO rat-stroke model [2]; 15 mg/kg daily vs vehicle control", "value": "Improvement"}, {"measurement": "Number of capillaries compared to vehicle treated control", "setting": "tMCAO rat-stroke model [2]; 15 mg/kg daily, 30 days after stroke", "value": "increased the number of capillaries"}, {"measurement": "Inflammatory response compared to vehicle treated control", "setting": "tMCAO rat-stroke model [2]; GFAP area, day 30", "value": "reduced inflammatory response"}]}
